Measurements as given in patent US20060025448A1, “Hair growth stimulators” (CADILA HEALTHCARE LIMITED, priority 2004, published 2006).

Legend:
[1] = test system: male C57BL/6J mice; assay: Effect on hair growth (bald area) in high-fat diet fed male C57BL/6J mice; format: in vivo; conditions: 10 mg/kg orally; for growth of body hair (in words): high-fat diet fed male C57BL/6 mice, 28 days
Protocol: (§1) The C57BL/6 mice were housed on a lightdark cycle in a room with temperature (22±2° C.) and humidity control. They were fed either a high-fat diet (HFD) (49% fat, 18% protein, 33% carbohydrate) or a standard mouse diet (STD) (8% fat, 19% protein, 73% carbohydrate). Six-week-old C57BL/6J male mice were given HFD or STD diets for 17 wks before drug treatment started. […] After this, mice were weighed and treated as per the following three groups, while the diet treatment continued.
(§2) High-fat diet fed & vehicle treated (HFD-V), • High-fat diet fed & treated with 10 mg/kg Compound 2 (HFD-R 10 mg) • High-fat diet fed & treated with 10 mg/kg Compound 1 (HD-ZY 10 mg) • Compound 1 and Compound 2 were administered orally in distilled water with 0.1% Tween 80 one hour before the onset of the dark phase.
(§3) The animals were observed daily. Body weights were recorded daily, and the animals were photographed on 28th day on the back, The results are mentioned in Table 1 and Table 2.

[2] = Effect on body weight in high-fat diet fed male C57BL/6J mice; format: in vivo; conditions: for effect on body weight (in words): high-fat diet fed male C57BL/6 mice
Protocol: as §1, §2, §3

## Cc1c(C(=O)NN2CCCCC2)nn(-c2ccc(Cl)cc2Cl)c1-c1ccc(Cl)s1.Cl [Compound 1, Hydrochloride salt of 5-(5-Chloro-thiophen-2-yl)-1-(2,4-dichloro-phenyl)-4-methyl-1H-pyrazole-3-caxboxylic acid piperidin-1-ylamide]
[1]; high-fat diet fed male C57BL/6J mice, after 28th day of dosing, n = 6
  bald area (where hair growth or pigmentation has not appeared), Area (Mean ± Standard Error Mean): 0.011 ± 0.223 cm^2
[1]; 10 mg/kg
  growth of body hair (in words): significantly enhanced the growth of body hair
[1]; listed as compound 1, 10 mg/kg
  growth of body hair (in words): able to stimulate hair growth
[2]; high-fat diet fed male C57BL/6J mice, 10 mg/kg orally, 28 days, n = 6
  Change in Body Weight in 28 days versus Day 0: -1.7 ± 0.5 g
[2]; high-fat diet fed male C57BL/6J mice, 10 mg/kg orally, Day 28, n = 6
  Body Weight on Day 28: 26.9 ± 1.1 g
[2]; high-fat diet fed male C57BL/6J mice, 10 mg/kg orally, versus vehicle group, n = 6
  Change in Body Weight versus HFD-V: -3.3 ± 1.8 g
[2]; high-fat diet fed male C57BL/6J mice, Day 0 (baseline before treatment), n = 6
  Body Weight on Day 0: 29.2 ± 1.1 g
[2]; 10 mg/kg orally, 28 days, 10 mg/kg
  effect on body weight (in words): decrease in body weight
[2]; 10 mg/kg orally, 28 days, listed as compound 1, 10 mg/kg
  effect on body weight (in words): decreasing body weight
